# Data taken from PMC2201222 (The Journal of General Physiology, 1968).
# How the values were obtained:
# [1] = Activity toward Na+-K+ transport across sheep red cell and thin lipid membranes; details: for selectivity for K+ over Na+ (section heading of Table II): sheep red cells and thin lipid membranes
# [2] = Electrical resistance and potential of thin lipid; design: species or system sheep; details: about 22C, unbuffered pH 5.6
# [3] = assay type: physicochemical; details: read-out by bilayer resistance
# [4] = general statement, no method or reference given; cited from earlier work
compound,measurement,setting,value
C=C1NC(=O)CC[C@@H](C(=O)O)NC(=O)[C@H](NC(=O)[C@H](CCCCN)NC(=O)[C@@H](N)Cc2c[nH]c3ccccc23)CSC[C@@H](C(=O)N[C@@H]2C(=O)N3CCC[C@H]3C(=O)NCC(=O)N[C@H](C(=O)N[C@H](C(=O)N[C@@H]3C(=O)NCC(=O)N[C@@H](C)C(=O)N[C@@H](CC(C)C)C(=O)N[C@@H](CCC(N)=O)C(=O)N/C(=C/C)C(=O)N[C@H](C(=O)N[C@@H](Cc4ccccc4)C(=O)N[C@@H](CC(C)C)C(=O)N[C@@H](CCC(N)=O)C(=O)N[C@@H]4C(=O)N[C@@H](CC(C)C)C(=O)N[C@H]5C(=O)N[C@@H](CSC4C)C(=O)NC(=O)[C@H](CC(N)=O)N[C@H](C(=O)N[C@@H](CCCCN)C(=O)N[C@H](C(=O)NC(=C)C(=O)N[C@@H](CCCCN)C(=O)O)[C@@H](C)CC)CSC5C)CSC3C)C(C)C)CSC2C)N[C@@H](CC(C)C)C(=O)NC1=O (some centres unmarked) [Subtilin],activity on cation selectivity (section heading of Table II),[1]; maximum conc. tested 10^-6 M,Inactive
Gramicidin B,selectivity for K+ over Na+ (section heading of Table II),[1],moderate to low selectivity
same,"Bilayers, TNa/TK (ratio of the transference number for Na+ to that for K+)",[2]; compound 10^-6 M,0.4
Gramicidin A,selectivity for K+ over Na+ (section heading of Table II),[1],moderate to low selectivity
"C[C@@H]1C[C@H]2CC[C@H](O2)[C@H](C)C(=O)O[C@@H](C)C[C@@H]2CC[C@@H](O2)[C@@H](C)C(=O)O[C@H](C)C[C@H]2CC[C@H](O2)[C@H](C)C(=O)O[C@@H](C)C[C@@H]2CC[C@@H](O2)[C@@H](C)C(=O)O1 [Nonactin, nonactin]",selectivity for K+ over Na+ (section heading of Table II),[1],high selectivity
same,"Bilayers, TNa/TK (ratio of the transference number for Na+ to that for K+)",[2]; compound 10^-7 M,< 0.01
CO[C@@H]1C[C@@H](C[C@H]2CC[C@H](C)[C@H]([C@@H](C)C(=O)O)O2)O[C@]2(O[C@](C)([C@H]3CC[C@@](C)([C@@H]4O[C@@H]([C@H]5O[C@@](O)(CO)[C@H](C)C[C@@H]5C)C[C@@H]4C)O3)C[C@H]2C)[C@@H]1C [Nigericin],selectivity for K+ over Na+ (section heading of Table II),[1],moderate to low selectivity
same,"Bilayers, TNa/TK (ratio of the transference number for Na+ to that for K+)",[2]; compound 10^-6 M,< 0.I
Bacitracin A,activity on cation selectivity (section heading of Table II),[1]; maximum conc. tested 10^-6 M,Inactive
"CC(C)[C@@H]1NC(=O)[C@H](C)OC(=O)[C@@H](C(C)C)NC(=O)[C@@H](C(C)C)OC(=O)[C@H](C(C)C)NC(=O)[C@H](C)OC(=O)[C@@H](C(C)C)NC(=O)[C@@H](C(C)C)OC(=O)[C@H](C(C)C)NC(=O)[C@H](C)OC(=O)[C@@H](C(C)C)NC(=O)[C@@H](C(C)C)OC1=O [Valinomycin, valinomycin]","Partition coefficient between decane and NaCl (0.1 M), compared with KCl (0.1 M)",[3]; aqueous phase NaCl (0.1 M),the same
same,"Partition coefficient between decane and pure H2O, compared with KCl (0.1 M)",[3]; aqueous phase pure H2O,the same
same,solubility in water,[4],almost insoluble
Vernamycin,activity on cation selectivity (section heading of Table II),[1]; maximum conc. tested 10^-5 M,Inactive
Polymixin B,activity on cation selectivity (section heading of Table II),[1]; maximum conc. tested 10^-5 M,Inactive
Phalloidin,activity on cation selectivity (section heading of Table II),[1]; maximum conc. tested 10^-4 M,Inactive
Gramicidin C,selectivity for K+ over Na+ (section heading of Table II),[1],moderate to low selectivity
Viridogrisein,activity on cation selectivity (section heading of Table II),[1]; maximum conc. tested 10^-6 M,Inactive
